Results from publication PMC6199744, “Development of Chemical Proteomics for the Folateome and Analysis of the Kinetoplastid Folateome” (ACS Infectious Diseases, 2018).

Tested on: L. major lysate proteins
Assay: Multitargeted bead mixture chemoproteomics, single concentration competition, proteome-wide
Assay type: binding
Conditions: for fold change: vehicle control = 1

SMILES: Nc1nc2[nH]cc(CCc3ccc(C(=O)N[C@@H](CCC(=O)O)C(=O)O)cc3)c2c(=O)[nH]1 [PTX, pemetrexed]
- fold change (protein LMJF.15.0040 HY[…], CONSERVED (Possible lysine decarboxylase, putative)): 0.69
- fold change vs vehicle control (protein LMJF.15.0690 HY[…], CONSERVED): 1.2
- fold change (protein LMJF.15.1010 GLUTAMATE DEHYDROGENASE): 1
- fold change (protein LMJF.15.1190 HY[…], CONSERVED (cyclic nucleotide-binding domain containing protein, putative)): 0.98
- fold change vs vehicle control (protein LMJF.16.0520 HY[…], CONSERVED): 0.76
- fold change vs vehicle control (protein LMJF.16.0540 ASPARTATE CARBAMOYLTRANSFERASE, PUTATIVE): 0.92
- fold change relative to vehicle control (protein LMJF.16.0760, TRANSALDOLASE, PUTATIVE): 1.18
- fold change vs vehicle control (protein LMJF.16.0940 DYNEIN LIGHT CHAIN, PUTATIVE): 1.1
- fold change relative to vehicle control (protein LMJF.16.1180, COATOMER DELTA SUBUNIT-LIKE PROTEIN): 1.15
- fold change relative to vehicle control (protein LMJF.16.1320, CYTOCHROME C, PUTATIVE): 1.56
- fold change relative to vehicle control (protein LMJF.16.1420, HY[…], CONSERVED): 1.13
- fold change relative to vehicle control (protein LMJF.17.0081, […] 1-ALPHA): 1.06
- fold change relative to vehicle control (protein LMJF.18.0270, GLYCOGEN SYNTHASE KINASE, PUTATIVE): 0.92
- fold change (protein LMJF.18.0580 P[…]-COA HYDRATASE, PUTATIVE): 0.93
- fold change relative to vehicle control (protein LMJF.18.0680, CITRATE SYNTHASE, PUTATIVE): 1.08
- fold change vs vehicle control (protein LMJF.18.1010 DYNEIN LIGHT CHAIN 2B, CYTOPLASMIC, PUTATIVE): 1.03
- fold change vs vehicle control (protein LMJF.18.1210 PROLYL-TRNA SYNTHETASE, PUTATIVE,BI[…]-TRNA SYNTHETASE, PUTATIVE): 0.97
- fold change vs vehicle control (protein LMJF.18.1370 HEAT SHOCK PROTEIN, PUTATIVE): 1.02
- fold change (protein LMJF.19.0200 ADP,ATP CARRIER PROTEIN 1, MIT[…], PUTATIVE): 1.02
- fold change vs vehicle control (protein LMJF.19.1120 […]-ATP-ASE SUBUNIT, PUTATIVE): 0.91
- fold change vs vehicle control (protein LMJF.19.1160 HY[…], CONSERVED): 0.92
- fold change vs vehicle control (protein LMJF.19.1560 INOSINE-5'-MONOPHOSPHATE DEHYDROGENASE): 0.92
- fold change relative to vehicle control (protein LMJF.19.1620, POTASSIUM VOLTAGE-GATED CHANNEL, PUTATIVE): 1.13
- fold change vs vehicle control (protein LMJF.20.1280 SMALL MYR[…] 4, PUTATIVE): 0.89
- fold change (protein LMJF.21.0810 METHIONYL-TRNA SYNTHETASE, PUTATIVE): 0.98
- fold change (protein LMJF.21.1450 ARGININE N-METHYLTRANSFERASE, TYPE II, PUTATIVE): 0.98
- fold change vs vehicle control (protein LMJF.21.1830 […] 5 SUBUNIT, PUTATIVE,20S […] ALPHA 5, (PUTATIVE)): 0.96
- fold change (protein LMJF.22.0230 AMINO ACID PERMEASE, PUTATIVE): 1.09
- fold change vs vehicle control (protein LMJF.22.0570 […] SUBUNIT 1, PUTATIVE): 1.04
- fold change vs vehicle control (protein LMJF.22.0730 HY[…], CONSERVED): 0.96
- fold change (protein LMJF.22.0770 NADH-CYTOCHROME B5 REDUCTASE, PUTATIVE): 0.82
- fold change relative to vehicle control (protein LMJF.23.0020, HY[…], CONSERVED): 1.35
- fold change relative to vehicle control (protein LMJF.23.0040, PEROXIDOXIN): 0.99
- fold change relative to vehicle control (protein LMJF.23.0080, HY[…], CONSERVED): 0.97
- fold change (protein LMJF.23.0210 ATP-BINDING CASSETTE PROTEIN SUBFAMILY C, MEMBER 1, PUTATIVE): 0.87
- fold change (protein LMJF.23.0370 CYTOCHROME C OXIDASE SUBUNIT 10, PUTATIVE): 0.9
- fold change relative to vehicle control (protein LMJF.23.0540, ACETYL-COA SYNTHETASE, PUTATIVE): 1.05
- fold change vs vehicle control (protein LMJF.23.0560 KINESIN, PUTATIVE): 1.12
- fold change vs vehicle control (protein LMJF.23.1410 HY[…], CONSERVED): 0.97
- fold change relative to vehicle control (protein LMJF.24.0070, HY[…], CONSERVED): 1.03
- fold change (protein LMJF.24.0140 ANKYRIN/TPR REPEAT PROTEIN): 0.86
- fold change (protein LMJF.24.0400 HY[…], CONSERVED (TPR repeat, putative)): 0.87
- fold change relative to vehicle control (protein LMJF.24.1510, IGE-DEPENDENT HISTAMINE-RELEASING FACTOR, PUTATIVE): 1.15
- fold change relative to vehicle control (protein LMJF.24.1630, SUCCINATE DEHYDROGENASE FLAVOPROTEIN, PUTATIVE): 0.98
- fold change relative to vehicle control (protein LMJF.24.2060, TRANSKETOLASE): 0.96
- fold change relative to vehicle control (protein LMJF.25.0010, BETA GALACTOFURANOSYL TRANSFERASE): 1.17
- fold change relative to vehicle control (protein LMJF.25.0910, C[…]): 1.55
- fold change vs vehicle control (protein LMJF.25.1130 CYTOCHROME C OXIDASE VII, PUTATIVE): 0.92
- fold change relative to vehicle control (protein LMJF.25.1180, ATPASE BETA SUBUNIT, PUTATIVE): 1
- fold change vs vehicle control (protein LMJF.25.1610 HY[…], CONSERVED): 0.99
- fold change vs vehicle control (protein LMJF.25.1620 HY[…], CONSERVED): 1.01
- fold change (protein LMJF.25.2340 SERINE/THREONINE-PROTEIN KINASE, PUTATIVE,PROTEIN KINASE, PUTATIVE): 0.74
- fold change relative to vehicle control (protein LMJF.26.0630, HY[…], CONSERVED): 0.9
- fold change vs vehicle control (protein LMJF.26.1240 HEAT SHOCK PROTEIN 70-RELATED PROTEIN): 0.88
- fold change (protein LMJF.26.1710 CYTOCHROME C OXIDASE SUBUNIT V, PUTATIVE): 0.94
- fold change vs vehicle control (protein LMJF.26.2480 CDP-DIACYLGLYCEROL--INOSITOL 3-PHOSPHATIDYLTRANSFERASE, PUTATIVE): 1.06
- fold change vs vehicle control (protein LMJF.26.2560 HY[…], CONSERVED): 0.66
- fold change vs vehicle control (protein LMJF.27.0190 […] 7 SUBUNIT, PUTATIVE): 0.91
- fold change (protein LMJF.27.0650 HY[…], CONSERVED): 0.99
- fold change (protein LMJF.27.0700 HY[…], CONSERVED): 0.86
- fold change vs vehicle control (protein LMJF.27.0760 GTP-binding protein homologue): 1.01
- fold change vs vehicle control (protein LMJF.27.1060 CYSTEINE DESULFURASE, PUTATIVE): 0.96
- fold change vs vehicle control (protein LMJF.27.1110 MIT[…] BINDING PROTEIN 1,GBP21, MRP1): 1.06
- fold change (protein LMJF.27.1250 HY[…], CONSERVED (Serine-threonine kinase receptor-associated protein, putative)): 0.88
- fold change relative to vehicle control (protein LMJF.27.1390, 60S ACIDIC RIBOSOMAL SUBUNIT PROTEIN, PUTATIVE): 1.07
- fold change (protein LMJF.27.1460 […]-ATP-ASE SUBUNIT 3, PUTATIVE): 0.89
